From patent US6127337A, “Bivalent thrombin inhibitors” (National Research Council of Canada, priority 1993, dated 2000)
Like-named read-outs stand apart in the source and are kept apart here. Blank lines part the entries; values can stand above or below the compound they belong to.

Experiments:
human thrombin = target: T1, human thrombin (Homo sapiens, UniProt P00734); assay: Inhibition of amidolytic activity of human thrombin (fluorogenic, Tos-Gly-Pro-Arg-AMC), Ki; type: biochemical
T1 construct: Human α-thrombin (3,000 NIH units/mg); purchased Sigma
Method: Materials. The chromogenic and fluorogenic substrates Tosyl-Gly-Pro-Arg-pNAand Tos-Gly-Pro-Arg-AMC were purchased from Boehringer Manheim and Sigma, respectively. […] Initial velocities were recorded at several inhibitor concentrations and kinetic parameters were determined by fitting the data to a general equation describing enzyme inhibition (Segel, 1975). The data were analyzed using the non-linear regression program RNLIN in the IMSL library (IMSL, 1987) on a microVAX™ 3500 computer. […] Fluorogenic assays were conducted using the same conditions and instrument as above operating in the fluorescence mode in the ratio (λex =383 nm, λem =455 nm) Fluorescence intensities were calibrated with 7-amino-4-methyl coumarin solution of known concentration
Determination of Thrombin Inhibitory Dissociation Constants KI
The steady-state velocity was then measured for a few minutes. The compounds of this invention were also pre-incubated with thrombin for 20 min at room temperature before adding the substrate. […] The kinetic data (the steady-state velocity at various concentrations of the substrate and the inhibitors) of the competitive inhibition was analyzed using the methods described by Segel (1975). A non-linear regression program, RNLIN in the IMSL library (IMSL, 1987), LMDER in MINPACK library (More et al., 1980) or Microsoft™ Excell™, was used to estimate the kinetic parameters (Km Vmax and Ki). The biological data are reported on tables I-V.

[1] = test system: carotid injury-induced thrombosis; assay: FeCl3 induced arterial injury model (carotid injury-induced thrombosis); type: in vivo; conditions: rat; for Dose to double occlusion time: control occlusion time 19 ± 1 min; for Dose to achieve patency at 60 min.: patency defined by no drop in vessel temperature
Method: […]: Rat, male, Sprague-Dawley. Weight: 375-450 g The FeCl3 induced arterial injury model assays were conducted according to Kurz, K. D., Main, […]., Thrombosis research 60; 269-280, 1990 and Schumacher, W. A. et al. J. pharmacology and experimental therapeutics 267; 1237-1242, 1993. Male, Sprague-Dawley (375-450 g) are anesthetized with Urethane (1500 mg/kg IP). Animals are laid on a heating pad which is maintained at 37° C. The carotid artery is approached through a midline cervical incision. Carefully blunt dissection is used to expose and isolate the vessel from the carotid sheath. Using forceps, the artery is lifted to provide clearance to insert two small polyethylene tubing (PE-205) underneath it. The temperature probe (Physitemp MT23/3 )TM is placed between the PE-205 and the artery. The vessel temperature is monitored for 60 minutes after application of FeCl3. Vessel temperature changes are recorded on a thermister (Cole-Palmer Model 08533-41). Injury is induced by application of a small disc (3 mm dia.) of WhatmanTM No.1 filter paper previously dipped in a 35% solution of FeCl3 on the carotid artery above the temperature probe. The site of the experiment is covered with in Aluminum foil in order to protect the FeCl3 from degradation by light. […] Before the start of the experiment, one blood sample is drawn (1 ml) in a tube of 0.105M buffered citrate solution (from the eye's sinus) and the animal is exsanguinated at the end. All the samples are kept on ice and centrifuged as soon as possible at 2000 Rpm for 10 min., 4° C. The plasma is analyzed in duplicate for activated partial thromboplastin time on a haemostasis analyzer (STAGO ST4TM). From a group of four animals, two arteries are stored at -80C for further analysis.

[2] = Table II, various active site inhibitor segments, human thrombin 3.0×10^-11 M, read-out: Ki
[3] = FIG. 1 Dixon plot, human α-thrombin 0.033 NIH unit/mL, pH 7.8, 25° C., read-out: Ki
[4] = Table IV, results from assay no. 1, read-out: Ki
[5] = Table IV, results from assay no. 2, read-out: Ki
[6] = Table III, various linker segments, human thrombin 3.0×10^-11 M, read-out: Ki

Ki (human thrombin; [2]): 54.9 ± 6.6 nM
Compound: (D-Phe)-Arg-(D-Pipecolic acid)(12-aminododecanoic acid)-4-aminobutyric acid)-Asp-Phe-Glu-Glu-Ile-Pro-Glu-Glu-Tyr-Leu-Gln-OH [Peptide P483]

Ki (human thrombin; [3]): 0.017 ± 0.0042 nM
Compound: dansyl-Arg-(D-pipecolic acid)-(12-aminododecanoic acid)-4-aminobutyric acid)-Asp-Phe-Glu-Glu-Ile-Pro-Glu-Glu-Tyr-Leu-Gln-OH [Peptide P448]
Dose to double occlusion time [1]: 1.0 mg/kg i.v. bolus
Dose to achieve patency at 60 min. [1]: > 2 mg/kg i.v. bolus

Ki (human thrombin; [2]): 0.137 ± 0.026 nM
Ki (human thrombin; read-out: Ki value): < 1 nM
Compound: benzyl sulfonyl-Arg-(D-Pipecolic acid)-(12-aminododecanoic acid)-4-aminobutyric acid)-Asp-Phe-Glu-Glu-Ile-Pro-Glu-Glu-Tyr-Leu-Gln-OH [Peptide P556]

Ki (human thrombin; [2]): 0.024 ± 0.004 nM
Compound: β-naphthyl sulfonyl-Arg-(D-Pipecolic acid)-(12-aminododecanoic acid)-4-aminobutyric acid)-Asp-Phe-Glu-Glu-Ile-Pro-Glu-Glu-Tyr-Leu-Gln-OH [Peptide P532]
Dose to double occlusion time [1]: 0.5-1 mg/kg i.v. bolus
Dose to achieve patency at 60 min. [1]: 1-2 mg/kg i.v. bolus

Ki (human thrombin; [4]): 0.00123 ± 0.00026 nM
Ki (human thrombin; [5]): 0.002 ± 0.0004 nM
Compound: dansyl-Arg-(D-pipecolic acid)-(12-aminododecanoic acid)-4-aminobutyric acid)-Asp-Tyr-Glu-Pro-Ile-Pro-Glu-Glu-Ala-(L-β-cyclohexylalanine)-(D- Glu)-OH [Peptide P535]

Compound: 4-tert-Butyl-benzene sulfonyl-Arg-(D-Pipecolic acid)-(12-aminododecanoic acid)-4-aminobutyric acid)-Asp-Phe-Glu-Glu-Ile-Pro-Glu-Glu-Tyr-Leu-Gln-OH [Peptide P552]
Dose to double occlusion time [1]: 0.5 mg/kg i.v. bolus
Dose to achieve patency at 60 min. [1]: ≥ 2 mg/kg i.v. bolus

Ki (human thrombin; [2]): 0.032 ± 0.001 nM
Compound: α-naphthyl sulfonyl-Arg-(D-Pipecolic acid)-(12-aminododecanoic acid)-4-aminobutyric acid)-Asp-Phe-Glu-Glu-Ile-Pro-Glu-Glu-Tyr-Leu-Gln-OH [Peptide P531]
Dose to double occlusion time [1]: 0.5 mg/kg i.v. bolus
Dose to achieve patency at 60 min. [1]: > 2 mg/kg i.v. bolus

Ki (human thrombin; [2]): 5.2 ± 1.31 nM
Compound: dansyl-Nle-(D-Pipecolic acid)-(12-aminododecanoic acid)-4-aminobutyric acid)-Asp-Phe-Glu-Glu-Ile-Pro-Glu-Glu-Tyr-Leu-Gln-OH [Peptide P493]

Ki (human thrombin; Table IV, no assay number given, read-out: Ki): 0.003 ± 0.0004 nM
Compound: 4-tert-butylbenzenesulfonyl-Arg-(D-pipecolic acid)-(12-aminododecanoic acid)-4-aminobutyric acid)-Asp-Tyr-Glu-Pro-Ile-Pro-Glu-Glu-Ala-(L-β-cyclohexylalanine)-(D- Glu)-OH [Peptide P553]
Dose to double occlusion time [1]: 0.25 mg/kg i.v. bolus
Dose to achieve patency at 60 min. [1]: 0.5-1 mg/kg i.v. bolus

Ki (human thrombin; [2]): 17.1 ± 3.1 nM
Compound: dansyl-Arg-(D-β-cyclohexylalanine)-(12-aminododecanoic acid)-4-aminobutyric acid)-Asp-Phe-Glu-Glu-Ile-Pro-Glu-Glu-Tyr-Leu-Gln-OH [Peptide P472]

Ki (human thrombin; [4]): 0.0033 ± 0.00016 nM
Ki (human thrombin; [5]): 0.0042 ± 0.0002 nM
Compound: β-naphthyl sulfonyl-arginyl D-pipecolic acid-(12-aminododecanoic acid)-4-aminobutyric acid)-Asp-Tyr-Glu-Pro-Ile-Pro-Glu-Glu-Ala-(L-β-cyclohexylalanine)-(D- Glu)-OH [Peptide P551]
Dose to double occlusion time [1]: 0.5-1 mg/kg i.v. bolus
Dose to achieve patency at 60 min. [1]: 1-2 mg/kg i.v. bolus

Ki (human thrombin; [2]): 12.4 ± 1.8 nM
Compound: dansyl-Arg-(L-pipecolic acid)-(12-aminododecanoic acid)-4-aminobutyric acid)-Asp-Phe-Glu-Glu-Ile-Pro-Glu-Glu-Tyr-Leu-Gln-OH [Peptide P447]

Ki (human thrombin; [2]): 5.85 ± 0.098 nM
Compound: dansyl-Cha-(D-Pipecolic acid)-(12-aminododecanoic acid)-4-aminobutyric acid)-Asp-Phe-Glu-Glu-Ile-Pro-Glu-Glu-Tyr-Leu-Gln-OH [Peptide P477]

Ki (human thrombin; [2]): 36.3 ± 10.3 nM
Compound: dansyl-Arg-(D)1-amino cyclohexane carboxylic acid-(12-aminododecanoic acid)-4-aminobutyric acid)-Asp-Phe-Glu-Glu-Ile-Pro-Glu-Glu-Tyr-Leu-Gln-OH [Peptide P473]

Ki (human thrombin; [6]): 6800 ± 1640 nM
Compound: dansyl-Arg-(D-Pipecolic acid)-(4-aminobutyric acid)-glycyl)-Asp-Phe-Glu-Glu-Ile-Pro-Glu-Glu-Tyr-Leu-Gln-OH [Peptide P514]

Ki (human thrombin; [2]): 2.62 ± 0.2 nM
Compound: dansyl-Phe-(D-Pipecolic acid)-(12-aminododecanoic acid)-4-aminobutyric acid)-Asp-Phe-Glu-Glu-Ile-Pro-Glu-Glu-Tyr-Leu-Gln-OH [Peptide P476]

Ki (human thrombin; [6]): 1480 ± 170 nM
Compound: dansyl-Arg-(D-Pipecolic acid)-(7-aminoheptanoic acid)-glycyl)-Asp-Phe-Glu-Glu-Ile-Pro-Glu-Glu-Tyr-Leu-Gln-OH (RXXGDFEEIPEEYLQ; dansyl, D-pipecolic acid, aminoheptanoic acid-glycyl linker) [Peptide P524]

Ki (human thrombin; [2]): 0.285 ± 0.04 nM
Compound: dansyl-Arg-1,2,3,4-tetrahydroisoquinoline-3-carboxylic acid-(12-aminododecanoic acid)-4-aminobutyric acid)-Asp-Phe-Glu-Glu-Ile-Pro-Glu-Glu-Tyr-Leu-Gln-OH (RXXXDFEEIPEEYLQ; dansyl-Arg-Tic-aminododecanoic-aminobutyric N-terminal extension) [Peptide P471]

Ki (human thrombin; [2]): 1.02 ± 0.38 nM
Compound: dansyl-(D-Arg)-(D-Pipecolic acid)-(12-aminododecanoic acid)-4-aminobutyric acid)-Asp-Phe-Glu-Glu-Ile-Pro-Glu-Glu-Tyr-Leu-Gln-OH [Peptide P492]

Ki (human thrombin; Table III, various linker segments, human thrombin 3.0×10^-11 M): no inhibition
Compound: dansyl-Arg-(L-Pip)-(4-aminobutyric acid-glycyl)-Asp-Phe-Glu-Glu-Ile-Pro-Glu-Glu-Tyr-Leu-Gln-OH [Peptide P409]

Compound: CC[C@H](C)[C@H](NC(=O)[C@H](CCC(=O)O)NC(=O)[C@H](CCC(=O)O)NC(=O)[C@H](Cc1ccccc1)NC(=O)[C@H](CC(=O)O)NC(=O)CCCCNC(=O)CNC(=O)CNC(=O)CCNC(=O)[C@H]1CCCCN1C(=O)[C@H](CCCNC(=N)N)NS(=O)(=O)c1cccc2c(N(C)C)cccc12)C(=O)N1CCC[C@H]1C(=O)N[C@@H](CCC(=O)O)C(=O)N[C@@H](CCC(=O)O)C(=O)N[C@@H](Cc1ccc(O)cc1)C(=O)N[C@@H](CC(C)C)C(=O)N[C@@H](CCC(N)=O)C(=O)O [Peptide P498]
Ki (human thrombin; [3]): 0.131 ± 0.022 nM
Ki (human thrombin; read-out: Ki value): < 1 nM

Ki (human thrombin; [2]): 14.8 ± 1.2 nM
Compound: fmoc-Arg-(D-Pipecolic acid)(12-aminododecanoic acid)-4-aminobutyric acid)-Asp-Phe-Glu-Glu-Ile-Pro-Glu-Glu-Tyr-Leu-Gln-OH [Peptide P484]

Ki (human thrombin; [2]): 9.51 ± 0.16 nM
Compound: (D-β-cyclohexylalanine)-Arg-(D-Pipecolic acid)-(12-aminododecanoic acid)-4-aminobutyric acid)-Asp-Phe-Glu-Glu-Ile-Pro-Glu-Glu-Tyr-Leu-Gln-OH [Peptide P481]

Ki (human thrombin; [6]): 0.521 ± 0.086 nM
Ki (human thrombin; read-out: Ki value): < 1 nM
Compound: dansyl-Arg-(D-Pipecolic acid)-(8-aminocaproicacid)-4-aminobutyric acid)-Asp-Phe-Glu-Glu-Ile-Pro-Glu-Glu-Tyr-Leu-Gln-OH [Peptide P528]
